Measured values as given in ChEMBL document CHEMBL3271991, “A series of hexahydro[1,4]oxazino[3,4-a]isoquinolines as potential neuroleptics” (J Med Chem, 1978).
Activity calls are given as the source filed them. The rule behind the calls is not given here.

How the values were obtained:
[1] = Toxicity in wild fox assessed as ataxia at 32 mg/kg, ip; type: organism-based; parameters: dose 32 mg/kg, route intraperitoneal; conditions: vulpes vulpes, in vivo
[2] = system: Vulpes vulpes; experiment: Neuroleptic activity in wild fox assessed as taming effect at 32 mg/kg, ip; type: functional, organism-based; parameters: dose 32 mg/kg
[3] = system: Mus musculus; experiment: Neuroleptic activity in ip dosed mouse assessed as blockade of prehensile reflex by measuring failure to hang measured for 5 secs; type: functional
[4] = system: Rhesus monkey; experiment: Toxicity in monkey assessed as ataxia at 16 mg/kg, ip; type: organism-based, Macaca mulatta; parameters: dose 16 mg/kg, route intraperitoneal; conditions: in vivo
[5] = system: Gerbillinae; experiment: Neuroleptic activity in gerbil assessed as escape latency time at 2 mg/kg, ip measured up to 50 mins by sidman avoidance test relative to control; type: functional; conditions: route intraperitoneal
[6] = system: Gerbillinae; experiment: Neuroleptic activity in gerbil assessed as escape latency time at 16 mg/kg, ip measured up to 50 mins by sidman avoidance test relative to control; type: functional; conditions: route intraperitoneal
[7] = Toxicity in wild fox assessed as ataxia at 16 mg/kg, ip; type: organism-based; parameters: dose 16 mg/kg, route intraperitoneal; conditions: vulpes vulpes, in vivo
[8] = Toxicity in po dosed mouse; type: organism-based; conditions: in vivo
[9] = system: Gerbillinae; experiment: Neuroleptic activity in gerbil assessed as escape latency time at 4 mg/kg, ip measured up to 50 mins by sidman avoidance test relative to control; type: functional; conditions: route intraperitoneal
[10] = Toxicity in ip dosed mouse; type: organism-based; conditions: in vivo
[11] = system: Mus musculus; experiment: Neuroleptic activity in ip dosed mouse assessed as blockade of traction reflex by measuring failure to grasp wire with hind paws measured for 5 secs; type: functional
[12] = system: Gerbillinae; experiment: Neuroleptic activity in ip dosed gerbil up to 50 mins by sidman avoidance test; type: functional; conditions: read-out: MED
[13] = system: Gerbillinae; experiment: Neuroleptic activity in gerbil assessed as escape latency time at 8 mg/kg, ip measured up to 50 mins by sidman avoidance test relative to control; type: functional; conditions: route intraperitoneal
[14] = system: Rhesus monkey; experiment: Neuroleptic activity in monkey assessed as taming effect at 16 mg/kg, ip; type: functional, organism-based; parameters: dose 16 mg/kg; conditions: Macaca mulatta
[15] = system: Felis catus; experiment: Induction of muscle relaxant effect in cat at 20 mg/kg, iv; type: functional, organism-based; parameters: dose 20 mg/kg
[16] = system: Vulpes vulpes; experiment: Neuroleptic activity in wild fox assessed as taming effect at 16 mg/kg, ip; type: functional, organism-based; parameters: dose 16 mg/kg
[17] = system: Mus musculus; experiment: Neuroleptic activity in ip dosed mouse assessed as blockade of corneal reflex by measuring failure to blink; type: functional; conditions: Cornea
[18] = system: Mus musculus; experiment: Neuroleptic activity in ip dosed mouse assessed as blockade of righting reflex by measuring failure to right to normal position measured for 30 secs; type: functional
[19] = system: Mus musculus; experiment: Neuroleptic activity in mouse assessed as blockade of corneal reflex by measuring failure to blink at 640 mg/kg, ip; type: functional, organism-based; parameters: dose 640 mg/kg; conditions: Cornea
[20] = system: Mus musculus; experiment: Neuroleptic activity in mouse assessed as blockade of traction reflex by measuring failure to grasp wire with hind paws at 640 mg/kg, ip measured for 5 secs; type: functional, organism-based; parameters: dose 640 mg/kg
[21] = system: Mus musculus; experiment: Neuroleptic activity in mouse assessed as blockade of prehensile reflex by measuring failure to hang at 640 mg/kg, ip measured for 5 secs; type: functional, organism-based; parameters: dose 640 mg/kg
[22] = system: Mus musculus; experiment: Neuroleptic activity in mouse assessed as blockade of righting reflex by measuring failure to right to normal position at 640 mg/kg, ip measured for 30 secs; type: functional, organism-based; parameters: dose 640 mg/kg
[23] = system: Gerbillinae; experiment: Neuroleptic activity in gerbil assessed as escape latency time at 20 mg/kg, ip measured up to 50 mins by sidman avoidance test relative to control; type: functional; conditions: route intraperitoneal
[24] = system: Gerbillinae; experiment: Neuroleptic activity in gerbil assessed as escape latency time at 40 mg/kg, ip measured up to 50 mins by sidman avoidance test relative to control; type: functional; conditions: route intraperitoneal
[25] = system: Gerbillinae; experiment: Neuroleptic activity in gerbil assessed as escape latency time at 80 mg/kg, ip measured up to 50 mins by sidman avoidance test relative to control; type: functional; conditions: route intraperitoneal
[26] = system: Gerbillinae; experiment: Neuroleptic activity in gerbil assessed as escape latency time at 2.5 mg/kg, ip measured up to 50 mins by sidman avoidance test relative to control; type: functional; conditions: route intraperitoneal
[27] = system: Gerbillinae; experiment: Neuroleptic activity in gerbil assessed as escape latency time at 10 mg/kg, ip measured up to 50 mins by sidman avoidance test relative to control; type: functional; conditions: route intraperitoneal
[28] = system: Gerbillinae; experiment: Neuroleptic activity in gerbil assessed as escape latency time at 5 mg/kg, ip measured up to 50 mins by sidman avoidance test relative to control; type: functional; conditions: route intraperitoneal
[29] = Toxicity in wild fox assessed as ataxia at 4 mg/kg, ip; type: organism-based; parameters: dose 4 mg/kg, route intraperitoneal; conditions: vulpes vulpes, in vivo
[30] = system: Gerbillinae; experiment: Neuroleptic activity in gerbil assessed as escape latency time at 0.5 mg/kg, ip measured up to 50 mins by sidman avoidance test relative to control; type: functional; conditions: route intraperitoneal
[31] = system: Gerbillinae; experiment: Neuroleptic activity in gerbil assessed as escape latency time at 1 mg/kg, ip measured up to 50 mins by sidman avoidance test relative to control; type: functional; conditions: route intraperitoneal
[32] = system: Vulpes vulpes; experiment: Neuroleptic activity in wild fox assessed as taming effect at 4 mg/kg, ip; type: functional, organism-based; parameters: dose 4 mg/kg
[33] = Mus musculus, ip, read-out: ED50

## CNC1=Nc2ccccc2C(c2ccccc2)=[N+]([O-])C1
[1]
  Activity: Non-toxic
[2]
  Activity: Active

## CCN(CC)C(=O)[C@H]1CN2CCc3cc(OC)c(OC)cc3[C@H]2CO1.Cl (racemic)
[3]; [33]
  ED50: 400 mg/kg
[4]
  Activity: Non-toxic
[5]
  Time: 0.6 s
[6]
  Time: 0.8 s
[7]
  Activity: Non-toxic
[8]
  LD50: 1400 mg/kg
[9]
  Time: 0.8 s
[10]
  LD50: 1100 mg/kg
[11]; [33]
  ED50: 100 mg/kg
[12]
  minimal effective dose: 25 mg/kg
[13]
  Time: 0.5 s

## CCN(CC)C(=O)[C@H]1CN2CCc3cc(OC)c(OC)cc3[C@H]2CO1 (racemic)
[14]
  Activity: Active
[15]
  Activity: Active
[16]
  Activity: Active

## COc1cc2c(cc1OC)[C@H]1CO[C@H](C#N)CN1CC2 (relative stereo)
[3]; [33]
  ED50: > 640 mg/kg
[11]; [33]
  ED50: 180 mg/kg

## CCN(CC)C(=O)[C@H]1CN2CCc3cc(OC)c(OC)cc3[C@H]2CO1 (relative stereo)
[3]; [33]
  ED50: 500 mg/kg
[11]; [33]
  ED50: 110 mg/kg

## COc1cc2c(cc1OC)[C@H]1CO[C@@H](C(=O)N3CCCC3)CN1CC2 (relative stereo)
[3]; [33]
  ED50: > 640 mg/kg
[11]; [33]
  ED50: 180 mg/kg

## COc1cc2c(cc1OC)[C@H]1CO[C@@H](C(=O)N3CCCCC3)CN1CC2 (relative stereo)
[3]; [33]
  ED50: 280 mg/kg
[11]; [33]
  ED50: 180 mg/kg
[17]
  ED50: 450 mg/kg
[18]
  ED50: 280 mg/kg

## COc1cc2c(cc1OC)[C@H]1CO[C@@H](C(=O)N3CCOCC3)CN1CC2 (relative stereo)
[3]; [33]
  ED50: > 640 mg/kg
[11]; [33]
  ED50: 200 mg/kg

## CCOC(=O)[C@H]1CN2CCc3cc(OC)c(OC)cc3[C@H]2CO1 (relative stereo)
[19]
  Activity: inactive
[20]
  Activity: inactive
[21]
  Activity: inactive
[22]
  Activity: inactive

## CCN(CC)C(=O)C1CN2CCc3cc(OC)c(OC)cc3C2CO1 (stereo in doubt; 19)
[3]; [33]
  ED50: 400 mg/kg
[23]
  Time: 0.5 s
[24]
  Time: 1.2 s
[11]; [33]
  ED50: 125 mg/kg
[25]
  Time: 2.2 s

## CCN(CC)C(=O)C1CN2CCc3cc(OC)c(OC)cc3C2CO1 (stereo in doubt; 20)
[3]
  ED50: 460 mg/kg
[26]
  Time: 0.5 s
[23]
  Time: 2.4 s
[27]
  Time: 1.2 s
[11]
  ED50: 150 mg/kg
[28]
  Time: 0.6 s

## CN(C)CCCN1c2ccccc2Sc2ccc(Cl)cc21 [CHLORPROMAZINE]
[3]; [33]
  ED50: 74 mg/kg
[29]
  Activity: Non-toxic
[5]
  Time: 0.8 s
[30]
  Time: 1 s
[31]
  Time: 1.1 s
[32]
  Activity: Active
[11]; [33]
  ED50: 6 mg/kg
[17]
  ED50: 160 mg/kg
[18]
  ED50: 115 mg/kg

## CCCC(C)(COC(N)=O)COC(N)=O [MEPROBAMATE]
[3]; [33]
  ED50: 225 mg/kg
[11]; [33]
  ED50: 160 mg/kg
[17]
  ED50: 400 mg/kg
[18]
  ED50: 320 mg/kg

## CCC1(c2ccccc2)C(=O)NC(=O)NC1=O [PHENOBARBITAL]
[3]; [33]
  ED50: 82 mg/kg
[11]; [33]
  ED50: 64 mg/kg
[17]
  ED50: 100 mg/kg
[18]
  ED50: 140 mg/kg
